Experimental data as given in patent US20220279826A1, “OFF-FLAVOR SUPPRESSING AGENT” (AJINOMOTO CO., INC., priority 2019, published 2022).

Key:
[1] = Sensory evaluation in 0.15 wt % catechin aqueous solution (Experimental Example 9); settings: summary of Table 23
Procedure: Each compound shown in the following Table 23 was added to a 0.15 wt % catechin aqueous solution (an aqueous solution prepared by dissolving catechin (0.15 parts by weight) in ion exchange water (99.85 parts by weight)) so as to achieve the concentration (addition concentration) shown in the following Table 23 to prepare each evaluation sample.
(§1) Based on the following evaluation criteria, a panel of four experts determined by consensus the intensity of off-tastes (bitter taste, rough taste, harsh taste) derived from catechin in each evaluation sample, by comparison with a 0.15 wt % catechin aqueous solution without addition of any compound (negative control).

[2] = Sensory evaluation of off-taste suppressing effect in 0.8 wt % potassium chloride aqueous solution (Experimental Examples 1 and 2)
[3] = Sensory evaluation in soy protein hamburg steak (Experimental Example 17); settings: Table 32
Procedure: Of the materials shown in the following Table 31, the materials of category 1 were first mixed, and the materials of category 2 were further mixed. The obtained mixture was formed into a circular shape of about 100 g per piece, and then baked at 180° C. for 2 minutes and 30 seconds for each of the front and back sides on an iron plate to produce a soy protein hamburg steak. Here, the granular soy protein manufactured by FUJI OIL CO., LTD. was used.
Each compound shown in the following Table 32 was added to soy protein hamburg steak so as to achieve the concentration (addition concentration) shown in the following Table 32 to prepare each evaluation sample.
as §1, with “five” for “four”, “harsh” for “rough”, “astringent” for “harsh”, “soy protein” for “catechin”, “soy protein hamburg steak” for “a 0.15 wt % catechin aqueous solution”

[4] = Sensory evaluation in potage solution with potassium chloride (Experimental Example 3); settings: Potage solution with 0.8 wt % potassium chloride
Procedure: (§2) As shown in the following (1) to (3) below, 0.8 wt % of potassium chloride was added to a food base powder corresponding to 0.5 wt % of sodium chloride to prepare each base solution having an off-taste derived from potassium chloride.
Potassium chloride (0.8 g) was added to a commercially available powdered instant potage (manufactured by Ajinomoto Co., Inc., trade name “Knorr (registered trade mark) Cup Soup Potage”) (7.1 g), hot water (92.1 g) was added to dissolve the mixture to prepare a base solution (potage solution).
(§3) Each compound shown in the following Tables 15 to 17 was added to each base solution (ramen noodle soup solution, chicken broth solution, potage solution) so as to achieve the concentration (addition concentration) shown in the following Tables 15 to 17 to prepare each evaluation sample.
(§4) By a method similar to that in Experimental Example 1, a panel of two experts determined the intensity of off-tastes (bitter taste, metallic taste, harsh taste, astringent taste) derived from potassium chloride in each evaluation sample.

[5] = Sensory evaluation in 1.5 wt % disodium phosphate aqueous solution (Experimental Example 19); settings: Table 34
Procedure: Each compound shown in the following Table 34 was added to a 1.5 wt % disodium phosphate aqueous solution (aqueous solution prepared by dissolving disodium phosphate (1.5 parts by weight) in water (98.5 parts by weight)) so as to achieve the concentration (addition concentration) shown in the following Table 34 to prepare each evaluation sample.
as §1, with “harsh” for “rough”, “astringent” for “harsh”, “disodium phosphate” for “catechin”, “1.5” for “0.15”

[6] = Sensory evaluation in ramen noodle soup solution with potassium chloride (Experimental Example 3); settings: for off-taste suppressing effect: Ramen noodle soup solution with 0.8 wt % potassium chloride; for intensity of off-tastes (bitter taste, metallic taste, harsh taste, astringent taste) derived from potassium chloride: base solutions of Tables 15 to 17 (ramen noodle soup, chicken broth, potage)
Procedure: as §2
Potassium chloride (0.8 g) was added to a soup powder (1.1 g) of a commercially available instant ramen noodle (manufactured by SANYO FOODS Co., Ltd., trade name “Sapporo Ichiban Shouyuaji”), hot water (98.1 g) was added to dissolve the mixture to prepare a base solution (ramen noodle soup solution).
as §3, §4

[7] = Sensory evaluation in granular soy protein (Experimental Example 14); settings: text summary of Table 28
Procedure: Each compound shown in the following Table 28 was added to granular soy protein (manufactured by FUJI OIL CO., LTD.) so as to achieve the concentration (addition concentration) shown in the following Table 28 to prepare each evaluation sample.
as §1, with “harsh” for “rough”, “astringent” for “harsh”, “soy protein” for “catechin”, “granular soy protein” for “a 0.15 wt % catechin aqueous solution”

[8] = 0.8 wt % potassium chloride aqueous solution, addition concentration 5 weight ppb (0.625 weight ppm with respect to potassium chloride)
[9] = 0.8 wt % potassium chloride aqueous solution, addition concentration 10 weight ppb (1.25 weight ppm with respect to potassium chloride)
[10] = 0.8 wt % potassium chloride aqueous solution, addition concentration 50 weight ppb (6.25 weight ppm with respect to potassium chloride)
[11] = 0.8 wt % potassium chloride aqueous solution, addition concentration 100 weight ppb (12.5 weight ppm with respect to potassium chloride)
[12] = in words, potassium chloride aqueous solutions, Tables 1 to 14
[13] = potassium chloride aqueous solutions, Tables 1 to 14
[14] = addition concentration 10 ppb (1.25 weight ppm with respect to potassium chloride)
[15] = 0.8 wt % potassium chloride aqueous solution, addition concentration 500 weight ppb (62.5 weight ppm with respect to potassium chloride)
[16] = addition concentration 100 ppb (12.5 weight ppm with respect to potassium chloride)
[17] = addition concentration 1 ppm (125 weight ppm with respect to potassium chloride)

Compound	intensity of off-tastes (bitter taste, rough taste, harsh taste) derived from catechin [1]	off-taste suppressing effect [2, 8]	off-taste suppressing effect [2, 9]	off-taste suppressing effect [2, 10]	off-taste suppressing effect [2, 11]	off-taste suppressing effect [2, 12]	intensity of off-tastes (bitter taste, metallic taste, harsh taste, astringent taste) derived from potassium chloride [2, 13]	intensity of off-tastes (bitter taste, harsh taste, astringent taste) derived from soy protein [3]	off-taste suppressing effect [4, 14]	intensity of off-tastes (bitter taste, harsh taste, astringent taste) derived from disodium phosphate [5]	off-taste suppressing effect [6, 14]	intensity of off-tastes (bitter taste, metallic taste, harsh taste, astringent taste) derived from potassium chloride [6]	intensity of off-tastes (bitter taste, harsh taste, astringent taste) derived from soy protein [7]	off-taste suppressing effect [2, 15]	further results
CC1=C(O)C(=O)CC1 [cyclotene]	suppressed	++ (intensity of the same level as potassium chloride aqueous solution with potassium chloride concentration of not less than 0.7 wt % and less than 0.75 wt %)	+++ (intensity of the same level as potassium chloride aqueous solution with potassium chloride concentration of not less than 0.65 wt % and less than 0.7 wt %)	+++ (intensity of the same level as potassium chloride aqueous solution with potassium chloride concentration of not less than 0.65 wt % and less than 0.7 wt %)	++ (intensity of the same level as potassium chloride aqueous solution with potassium chloride concentration of not less than 0.7 wt % and less than 0.75 wt %)	high	decreased	suppressed	+++ (intensity of the same level as potassium chloride aqueous solution with potassium chloride concentration of not less than 0.65 wt % and less than 0.7 wt %)	suppressed	+++ (intensity of the same level as potassium chloride aqueous solution with potassium chloride concentration of not less than 0.65 wt % and less than 0.7 wt %)	decreased	suppressed		off-taste suppressing effect ([2]; 0.8 wt % potassium chloride aqueous solution, addition concentration 1 weight ppb (0.125 weight ppm with respect to potassium chloride)): + (intensity of the same level as potassium chloride aqueous solution with potassium chloride concentration of not less than 0.75 wt % and less than 0.8 wt %)
CC(=O)c1ccco1 [2-acetylfuran]	suppressed			++ (intensity of the same level as potassium chloride aqueous solution with potassium chloride concentration of not less than 0.7 wt % and less than 0.75 wt %)	+++ (intensity of the same level as potassium chloride aqueous solution with potassium chloride concentration of not less than 0.65 wt % and less than 0.7 wt %)	high	decreased	suppressed		suppressed		decreased	suppressed	+ (intensity of the same level as potassium chloride aqueous solution with potassium chloride concentration of not less than 0.75 wt % and less than 0.8 wt %)	off-taste suppressing effect [4, 16]: ++ (intensity of the same level as potassium chloride aqueous solution with potassium chloride concentration of not less than 0.7 wt % and less than 0.75 wt %); off-taste suppressing effect [6, 16]: +++ (intensity of the same level as potassium chloride aqueous solution with potassium chloride concentration of not less than 0.65 wt % and less than 0.7 wt %)
O=Cc1ccco1 [furfural, Furfural]	suppressed	+ (intensity of the same level as potassium chloride aqueous solution with potassium chloride concentration of not less than 0.75 wt % and less than 0.8 wt %)	+++ (intensity of the same level as potassium chloride aqueous solution with potassium chloride concentration of not less than 0.65 wt % and less than 0.7 wt %)	+++ (intensity of the same level as potassium chloride aqueous solution with potassium chloride concentration of not less than 0.65 wt % and less than 0.7 wt %)	+ (intensity of the same level as potassium chloride aqueous solution with potassium chloride concentration of not less than 0.75 wt % and less than 0.8 wt %)	high	decreased	suppressed	++ (intensity of the same level as potassium chloride aqueous solution with potassium chloride concentration of not less than 0.7 wt % and less than 0.75 wt %)	suppressed	++ (intensity of the same level as potassium chloride aqueous solution with potassium chloride concentration of not less than 0.7 wt % and less than 0.75 wt %)	decreased	suppressed		
CCC(=O)O [propionic acid]	suppressed				+ (intensity of the same level as potassium chloride aqueous solution with potassium chloride concentration of not less than 0.75 wt % and less than 0.8 wt %)	high	decreased	suppressed		suppressed		decreased	suppressed	++ (intensity of the same level as potassium chloride aqueous solution with potassium chloride concentration of not less than 0.7 wt % and less than 0.75 wt %)	off-taste suppressing effect ([2]; 0.8 wt % potassium chloride aqueous solution, addition concentration 1000 weight ppb (125 weight ppm with respect to potassium chloride)): ++ (intensity of the same level as potassium chloride aqueous solution with potassium chloride concentration of not less than 0.7 wt % and less than 0.75 wt %); off-taste suppressing effect ([2]; 0.8 wt % potassium chloride aqueous solution, addition concentration 2000 weight ppb (250 weight ppm with respect to potassium chloride)): ++ (intensity of the same level as potassium chloride aqueous solution with potassium chloride concentration of not less than 0.7 wt % and less than 0.75 wt %); off-taste suppressing effect [4, 17]: ++ (intensity of the same level as potassium chloride aqueous solution with potassium chloride concentration of not less than 0.7 wt % and less than 0.75 wt %); off-taste suppressing effect [6, 17]: ++ (intensity of the same level as potassium chloride aqueous solution with potassium chloride concentration of not less than 0.7 wt % and less than 0.75 wt %)
